The target of experiment [1] is Serine/threonine-protein kinase RIO1 (Homo sapiens) (UniProt Q9BRS2). Put plainly: Selectivity interaction (KinomeScan (DiscoverX)) EUB0000702a RIOK1. The note with it: at 1 µM.
The subject of experiment [2] is T1, Receptor-type tyrosine-protein kinase FLT3 (Homo sapiens), P36888 [D835Y].
T1 sequence (whole entry): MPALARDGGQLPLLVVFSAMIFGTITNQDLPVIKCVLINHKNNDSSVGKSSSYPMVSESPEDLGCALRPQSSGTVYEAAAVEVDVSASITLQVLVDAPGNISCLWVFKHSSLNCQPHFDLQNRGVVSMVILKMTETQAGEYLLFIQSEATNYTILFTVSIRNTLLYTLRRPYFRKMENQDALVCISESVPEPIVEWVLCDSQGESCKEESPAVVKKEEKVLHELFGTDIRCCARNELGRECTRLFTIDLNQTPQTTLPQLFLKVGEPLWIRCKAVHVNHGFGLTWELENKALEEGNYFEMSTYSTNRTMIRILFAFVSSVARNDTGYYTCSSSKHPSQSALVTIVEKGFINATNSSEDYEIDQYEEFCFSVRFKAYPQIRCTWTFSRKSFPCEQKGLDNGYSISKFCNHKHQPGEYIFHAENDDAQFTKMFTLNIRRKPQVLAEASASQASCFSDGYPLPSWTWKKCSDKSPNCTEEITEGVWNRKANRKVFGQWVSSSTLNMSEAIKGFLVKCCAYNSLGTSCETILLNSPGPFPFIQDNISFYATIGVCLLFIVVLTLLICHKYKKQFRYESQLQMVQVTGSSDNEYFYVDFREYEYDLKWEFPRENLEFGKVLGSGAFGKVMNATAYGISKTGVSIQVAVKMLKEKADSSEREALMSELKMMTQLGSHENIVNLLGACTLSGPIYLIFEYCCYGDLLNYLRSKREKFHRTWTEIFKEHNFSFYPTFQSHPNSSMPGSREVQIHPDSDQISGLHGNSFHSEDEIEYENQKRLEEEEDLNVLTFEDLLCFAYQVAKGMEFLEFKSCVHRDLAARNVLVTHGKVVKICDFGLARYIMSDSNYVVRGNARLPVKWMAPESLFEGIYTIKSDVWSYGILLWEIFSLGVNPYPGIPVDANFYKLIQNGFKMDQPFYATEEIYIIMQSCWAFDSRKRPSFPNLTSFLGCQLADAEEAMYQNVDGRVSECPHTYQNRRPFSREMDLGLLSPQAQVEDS
Put plainly: (§1) Selectivity interaction (KinomeScan (DiscoverX)) EUB0000138c FLT3. Conditions: at 100 nM.

Experiment [3] concerns T2, Receptor-type tyrosine-protein kinase FLT3 (Homo sapiens), P36888 [D835V].
T2 sequence (whole entry): T1 sequence (whole entry) with Y835V
The experiment is described as §1. Conditions: at 100 nM.

Experiment [4] deals with Dual specificity protein kinase TTK (Homo sapiens) (UniProt P33981). Put plainly: Selectivity interaction (KinomeScan (DiscoverX)) EUB0000138c TTK. Conditions: at 100 nM.
Experiment [5] deals with Serine/threonine-protein kinase Chk2 (Homo sapiens, UniProt O96017). The note with it: at 1 µM.
For experiment [6], the target named is T3, Phosphatidylinositol 5-phosphate 4-kinase type-2 beta (Homo sapiens) (UniProt P78356).
T3 sequence (whole entry): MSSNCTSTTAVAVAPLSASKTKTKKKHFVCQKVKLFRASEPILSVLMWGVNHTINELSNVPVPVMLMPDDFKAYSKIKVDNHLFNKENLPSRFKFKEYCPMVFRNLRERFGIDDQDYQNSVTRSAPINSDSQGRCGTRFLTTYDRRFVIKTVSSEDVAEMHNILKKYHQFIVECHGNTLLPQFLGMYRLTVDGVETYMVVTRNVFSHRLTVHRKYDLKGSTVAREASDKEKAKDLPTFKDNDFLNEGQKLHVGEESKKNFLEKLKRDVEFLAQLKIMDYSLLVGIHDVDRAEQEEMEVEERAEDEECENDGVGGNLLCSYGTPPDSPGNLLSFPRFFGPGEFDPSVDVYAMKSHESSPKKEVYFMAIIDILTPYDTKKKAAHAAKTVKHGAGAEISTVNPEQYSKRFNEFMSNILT
Put plainly: Selectivity interaction (KinomeScan (DiscoverX)) EUB0000698a PIP4K2B. Conditions: at 10 µM.

The target in experiment [7] is Serine/threonine-protein phosphatase 2A activator (Homo sapiens) (UniProt Q15257). The experiment in a line: Selectivity interaction (Kinase panel (University of Dundee)) EUB0000169b PTPA. The note with it: at 10 µM.
For experiment [8], the target named is Serine/threonine-protein kinase Nek6 (Homo sapiens) (UniProt Q9HC98). Put plainly: Selectivity interaction (Kinase panel (University of Dundee)) EUB0000169b NEK6. The note with it: at 10 µM.

Among the data in ChEMBL document CHEMBL5212743, “Selectivity Literature for EUbOPEN Chemogenomics Library wave 3” (2023) are % of control values, retold here.

Positions count from the first letter of the chain named.

Chain of Serine/threonine-protein kinase Chk2 (O96017 whole entry): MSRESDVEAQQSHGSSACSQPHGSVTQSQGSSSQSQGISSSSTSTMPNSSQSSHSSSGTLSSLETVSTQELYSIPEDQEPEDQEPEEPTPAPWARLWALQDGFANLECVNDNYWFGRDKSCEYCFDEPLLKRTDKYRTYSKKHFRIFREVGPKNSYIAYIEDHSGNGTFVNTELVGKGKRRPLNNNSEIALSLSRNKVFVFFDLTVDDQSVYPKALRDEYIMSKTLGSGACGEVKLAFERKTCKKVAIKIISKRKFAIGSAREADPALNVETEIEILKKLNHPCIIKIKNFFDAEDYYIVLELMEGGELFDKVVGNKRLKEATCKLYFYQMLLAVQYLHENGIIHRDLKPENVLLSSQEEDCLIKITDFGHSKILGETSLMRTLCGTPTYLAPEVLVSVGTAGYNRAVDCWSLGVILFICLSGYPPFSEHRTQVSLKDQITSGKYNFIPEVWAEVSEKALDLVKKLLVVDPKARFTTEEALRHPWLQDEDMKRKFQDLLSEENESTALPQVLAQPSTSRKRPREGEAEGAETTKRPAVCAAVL
Chain of Serine/threonine-protein kinase Nek6 (Homo sapiens) (Q9HC98 whole entry): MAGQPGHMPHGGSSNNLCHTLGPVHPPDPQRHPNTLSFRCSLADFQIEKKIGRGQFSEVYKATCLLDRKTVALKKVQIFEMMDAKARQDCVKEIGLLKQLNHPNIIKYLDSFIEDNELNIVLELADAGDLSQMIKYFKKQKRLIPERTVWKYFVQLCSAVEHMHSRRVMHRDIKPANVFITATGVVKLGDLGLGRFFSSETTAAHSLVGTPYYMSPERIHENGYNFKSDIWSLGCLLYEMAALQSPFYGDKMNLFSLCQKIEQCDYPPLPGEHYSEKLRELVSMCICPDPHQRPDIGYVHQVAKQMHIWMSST
Chain of Serine/threonine-protein kinase RIO1 (Homo sapiens) (Q9BRS2 whole entry): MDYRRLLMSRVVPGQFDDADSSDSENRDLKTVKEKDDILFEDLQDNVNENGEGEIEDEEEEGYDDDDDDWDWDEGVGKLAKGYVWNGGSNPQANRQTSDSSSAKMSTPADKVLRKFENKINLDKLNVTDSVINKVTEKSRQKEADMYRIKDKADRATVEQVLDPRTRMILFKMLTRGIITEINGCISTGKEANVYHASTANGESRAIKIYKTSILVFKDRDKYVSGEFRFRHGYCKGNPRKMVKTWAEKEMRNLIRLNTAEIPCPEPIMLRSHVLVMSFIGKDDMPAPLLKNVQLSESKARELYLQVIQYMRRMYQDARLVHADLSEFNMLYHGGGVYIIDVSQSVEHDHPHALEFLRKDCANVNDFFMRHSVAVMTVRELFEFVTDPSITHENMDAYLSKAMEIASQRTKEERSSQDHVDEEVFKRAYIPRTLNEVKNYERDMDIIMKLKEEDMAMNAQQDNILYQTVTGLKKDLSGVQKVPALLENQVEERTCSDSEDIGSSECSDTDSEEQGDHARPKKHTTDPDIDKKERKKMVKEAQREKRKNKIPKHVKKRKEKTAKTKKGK
Chain of Serine/threonine-protein phosphatase 2A activator (Homo sapiens) (Q15257 whole entry): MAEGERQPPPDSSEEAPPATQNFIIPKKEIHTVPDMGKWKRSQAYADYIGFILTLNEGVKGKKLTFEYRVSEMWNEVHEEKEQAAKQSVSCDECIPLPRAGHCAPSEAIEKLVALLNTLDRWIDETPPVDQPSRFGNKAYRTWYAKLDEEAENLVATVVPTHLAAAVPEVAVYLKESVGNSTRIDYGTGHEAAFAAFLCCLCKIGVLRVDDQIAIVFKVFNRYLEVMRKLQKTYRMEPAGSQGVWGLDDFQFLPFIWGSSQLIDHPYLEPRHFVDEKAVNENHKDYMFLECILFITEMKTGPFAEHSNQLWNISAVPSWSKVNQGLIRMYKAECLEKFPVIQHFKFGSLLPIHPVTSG
Chain of Dual specificity protein kinase TTK (Homo sapiens) (P33981 whole entry): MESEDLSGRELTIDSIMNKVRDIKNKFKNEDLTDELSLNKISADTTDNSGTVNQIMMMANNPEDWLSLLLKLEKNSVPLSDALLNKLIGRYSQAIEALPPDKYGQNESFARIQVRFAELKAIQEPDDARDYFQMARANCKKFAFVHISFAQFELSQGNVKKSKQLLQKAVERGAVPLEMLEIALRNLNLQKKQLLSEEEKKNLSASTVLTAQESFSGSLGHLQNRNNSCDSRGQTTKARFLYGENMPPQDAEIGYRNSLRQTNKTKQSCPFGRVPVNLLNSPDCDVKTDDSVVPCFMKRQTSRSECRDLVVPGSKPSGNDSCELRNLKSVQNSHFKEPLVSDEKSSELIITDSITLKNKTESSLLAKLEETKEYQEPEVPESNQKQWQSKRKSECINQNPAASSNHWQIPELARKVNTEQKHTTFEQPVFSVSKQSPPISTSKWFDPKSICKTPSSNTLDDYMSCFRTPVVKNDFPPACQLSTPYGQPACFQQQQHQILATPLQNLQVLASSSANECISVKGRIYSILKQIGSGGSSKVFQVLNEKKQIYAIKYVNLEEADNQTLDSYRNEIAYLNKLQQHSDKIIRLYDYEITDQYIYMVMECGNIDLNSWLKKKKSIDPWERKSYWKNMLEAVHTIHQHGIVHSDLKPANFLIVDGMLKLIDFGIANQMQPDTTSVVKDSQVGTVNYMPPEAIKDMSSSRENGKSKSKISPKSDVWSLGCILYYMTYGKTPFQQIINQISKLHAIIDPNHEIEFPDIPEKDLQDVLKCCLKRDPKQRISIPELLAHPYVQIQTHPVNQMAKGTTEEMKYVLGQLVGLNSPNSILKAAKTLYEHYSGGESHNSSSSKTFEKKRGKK

In turn, `CN(c1ccnc(CNc2nc(Nc3ccc4c(c3)CC(=O)N4)ncc2C(F)(F)F)n1)S(C)(=O)=O` [PF-00911705] gave a % of control in experiment [1] of 9.7%.
For `CNC(=O)c1ccc(Nc2ncc(C(F)(F)F)c(NCc3nccnc3N(C)S(C)(=O)=O)n2)cc1` [DEFACTINIB], the % of control in experiment [2] stood at 5.9%; in experiment [3], 0.2%; in experiment [4], 8.3%.
Consider `CCOc1cn(-c2ccc(F)cc2C)nc1C(=O)Nc1ccc(Oc2ccnc3cc(OC)c(OC)cc23)c(F)c1`, for which the % of control in experiment [5] is < 10%.
The compound `COc1cc2ncn(-c3cc(OCc4ccccc4C(F)(F)F)c(C(N)=O)s3)c2cc1OC` [GW843682X] gave a % of control in experiment [6] of 6.6%.
With `CC[C@@H]1C(=O)N(C)c2cnc(Nc3ccc(C(=O)NC4CCN(C)CC4)cc3OC)nc2N1C1CCCC1`, the % of control worked out at 56% in experiment [7] and 110% in experiment [8].
